Test results as given in ChEMBL document CHEMBL4184197 (Bioorg Med Chem, 2018).

What was measured:
[1] = biological target: D(3) dopamine receptor (Homo sapiens) (UniProt P35462); experiment: Binding affinity to recombinant human dopamine receptor D3 at 10 uM after 60 mins by scintillation counting analysis relative to control
[2] = biological target: Proto-oncogene tyrosine-protein kinase Src (Homo sapiens) (UniProt P12931); experiment: Binding affinity to recombinant human Src at 10 uM after 10 mins by LANCE assay relative to control
Proto-oncogene tyrosine-protein kinase Src (Homo sapiens), sequence (P12931 2-536 limits assumed): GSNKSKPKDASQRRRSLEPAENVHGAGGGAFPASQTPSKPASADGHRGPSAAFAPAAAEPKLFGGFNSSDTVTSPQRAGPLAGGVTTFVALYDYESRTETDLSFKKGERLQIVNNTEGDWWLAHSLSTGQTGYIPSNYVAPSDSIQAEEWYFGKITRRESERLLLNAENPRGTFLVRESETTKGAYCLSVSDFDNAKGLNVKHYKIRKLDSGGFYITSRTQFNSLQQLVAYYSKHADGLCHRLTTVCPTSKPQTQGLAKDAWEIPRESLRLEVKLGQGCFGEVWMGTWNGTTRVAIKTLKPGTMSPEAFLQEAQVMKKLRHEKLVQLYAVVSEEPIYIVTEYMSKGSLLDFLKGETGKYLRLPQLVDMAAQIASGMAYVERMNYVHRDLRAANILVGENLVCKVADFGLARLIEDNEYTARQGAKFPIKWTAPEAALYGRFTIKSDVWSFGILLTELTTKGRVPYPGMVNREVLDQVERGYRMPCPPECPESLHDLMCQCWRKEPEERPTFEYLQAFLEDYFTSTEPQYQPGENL

[3] = biological target: Kappa-type opioid receptor (Homo sapiens) (UniProt P41145); experiment: Binding affinity to human kappa opioid receptor at 10 uM after 60 mins by scintillation counting analysis relative to control
Kappa-type opioid receptor (Homo sapiens), sequence (P41145 whole entry): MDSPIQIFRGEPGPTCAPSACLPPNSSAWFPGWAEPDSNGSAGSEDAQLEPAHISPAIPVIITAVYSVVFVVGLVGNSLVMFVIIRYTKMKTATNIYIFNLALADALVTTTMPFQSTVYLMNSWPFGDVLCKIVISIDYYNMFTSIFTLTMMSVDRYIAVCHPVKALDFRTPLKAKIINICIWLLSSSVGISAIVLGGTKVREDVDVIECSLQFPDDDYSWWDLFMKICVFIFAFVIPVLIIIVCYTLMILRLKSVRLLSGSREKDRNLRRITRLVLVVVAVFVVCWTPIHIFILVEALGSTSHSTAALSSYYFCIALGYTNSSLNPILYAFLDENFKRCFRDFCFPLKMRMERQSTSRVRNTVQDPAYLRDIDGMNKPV

[4] = biological target: Calcitonin gene-related peptide type 1 receptor (Homo sapiens) (UniProt Q16602); experiment: Binding affinity to recombinant human CGRP at 10 uM after 90 mins by scintillation counting analysis relative to control
Homo sapiens [5] = species: Homo sapiens; experiment: Binding affinity to central-type benzodiazepine receptor (unknown origin) at 10 uM relative to control
[6] = biological target: Kinesin-like protein KIF11 (Homo sapiens) (UniProt P52732); experiment: Binding affinity to recombinant human EG5 at 10 uM after 10 mins by spectrophotometric analysis relative to control
Kinesin-like protein KIF11 (Homo sapiens), sequence (P52732 whole entry): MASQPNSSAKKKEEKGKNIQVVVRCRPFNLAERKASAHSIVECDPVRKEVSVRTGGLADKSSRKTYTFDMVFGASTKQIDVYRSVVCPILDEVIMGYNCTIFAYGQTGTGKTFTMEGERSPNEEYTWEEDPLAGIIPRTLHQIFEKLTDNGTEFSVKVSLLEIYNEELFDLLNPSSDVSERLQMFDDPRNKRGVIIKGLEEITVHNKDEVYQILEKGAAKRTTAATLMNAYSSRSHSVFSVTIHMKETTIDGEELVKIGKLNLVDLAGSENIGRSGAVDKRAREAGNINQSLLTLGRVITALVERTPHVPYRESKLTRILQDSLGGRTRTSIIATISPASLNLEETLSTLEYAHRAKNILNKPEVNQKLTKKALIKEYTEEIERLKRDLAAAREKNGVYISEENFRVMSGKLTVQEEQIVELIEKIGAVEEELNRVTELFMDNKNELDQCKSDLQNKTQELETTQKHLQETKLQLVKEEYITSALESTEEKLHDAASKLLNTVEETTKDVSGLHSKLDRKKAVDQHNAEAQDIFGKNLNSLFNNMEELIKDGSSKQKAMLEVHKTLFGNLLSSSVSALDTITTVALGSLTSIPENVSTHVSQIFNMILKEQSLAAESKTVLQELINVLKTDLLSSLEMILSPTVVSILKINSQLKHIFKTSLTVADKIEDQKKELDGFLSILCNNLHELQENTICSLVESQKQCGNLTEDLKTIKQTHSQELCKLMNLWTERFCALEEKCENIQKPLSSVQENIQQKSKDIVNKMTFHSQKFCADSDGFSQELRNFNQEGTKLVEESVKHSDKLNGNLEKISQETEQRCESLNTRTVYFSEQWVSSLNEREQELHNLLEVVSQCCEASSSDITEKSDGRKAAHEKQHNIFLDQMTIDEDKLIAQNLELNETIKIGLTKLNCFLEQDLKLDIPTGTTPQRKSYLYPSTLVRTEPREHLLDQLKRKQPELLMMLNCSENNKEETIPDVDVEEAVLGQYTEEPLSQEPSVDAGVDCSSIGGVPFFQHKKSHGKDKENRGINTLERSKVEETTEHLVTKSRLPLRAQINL

[7] = biological target: Histone deacetylase 3 (Homo sapiens) (UniProt O15379); experiment: Binding affinity to recombinant human HDAC3 at 10 uM after 10 mins by fluorescence analysis relative to control
Homo sapiens [8] = species: Homo sapiens; experiment: Binding affinity to bombesin receptor (unknown origin) at 10 uM relative to control
[9] = biological target: Endothelin-1 receptor (Homo sapiens) (UniProt P25101); experiment: Binding affinity to recombinant human ETA receptor at 10 uM after 120 mins by scintillation counting analysis relative to control
Endothelin-1 receptor (Homo sapiens), sequence (P25101 whole entry): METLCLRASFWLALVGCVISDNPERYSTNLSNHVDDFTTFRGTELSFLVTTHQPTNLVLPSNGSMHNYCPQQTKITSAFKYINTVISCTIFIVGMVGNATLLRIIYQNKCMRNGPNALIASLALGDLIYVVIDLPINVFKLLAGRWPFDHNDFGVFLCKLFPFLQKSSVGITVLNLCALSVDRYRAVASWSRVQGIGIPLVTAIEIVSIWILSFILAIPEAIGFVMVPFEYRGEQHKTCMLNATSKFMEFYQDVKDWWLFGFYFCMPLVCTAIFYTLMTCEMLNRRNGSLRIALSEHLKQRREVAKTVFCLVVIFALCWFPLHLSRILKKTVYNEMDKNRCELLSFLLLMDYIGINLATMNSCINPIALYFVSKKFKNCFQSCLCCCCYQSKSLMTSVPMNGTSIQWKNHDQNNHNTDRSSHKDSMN

[10] = biological target: Adenosine receptor A3 (Homo sapiens) (UniProt P0DMS8); experiment: Binding affinity to recombinant human A3 receptor at 10 uM after 120 mins by scintillation counting analysis relative to control
Caspase-8 (Homo sapiens) = Caspase-8 (Homo sapiens) (UniProt Q14790); experiment: Binding affinity to recombinant human caspase 8 at 10 uM after 45 mins by fluorescence assay relative to control
Caspase-8 (Homo sapiens), sequence (Q14790 217-374 limits assumed): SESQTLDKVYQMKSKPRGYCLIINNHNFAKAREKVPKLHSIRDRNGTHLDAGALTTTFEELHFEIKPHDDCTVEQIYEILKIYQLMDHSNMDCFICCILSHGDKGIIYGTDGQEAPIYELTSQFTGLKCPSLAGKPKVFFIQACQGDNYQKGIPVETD
Caspase-8 (Homo sapiens), sequence (Q14790 385-479 limits assumed): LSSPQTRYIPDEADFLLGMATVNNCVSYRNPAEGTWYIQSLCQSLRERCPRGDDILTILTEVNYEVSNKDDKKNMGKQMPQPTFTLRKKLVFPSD

[11] = biological target: 5-hydroxytryptamine receptor 2C (Homo sapiens) (UniProt P28335); experiment: Binding affinity to recombinant human 5-HT2C receptor at 10 uM after 60 mins by scintillation counting analysis relative to control
5-hydroxytryptamine receptor 2C (Homo sapiens), sequence (P28335 whole entry): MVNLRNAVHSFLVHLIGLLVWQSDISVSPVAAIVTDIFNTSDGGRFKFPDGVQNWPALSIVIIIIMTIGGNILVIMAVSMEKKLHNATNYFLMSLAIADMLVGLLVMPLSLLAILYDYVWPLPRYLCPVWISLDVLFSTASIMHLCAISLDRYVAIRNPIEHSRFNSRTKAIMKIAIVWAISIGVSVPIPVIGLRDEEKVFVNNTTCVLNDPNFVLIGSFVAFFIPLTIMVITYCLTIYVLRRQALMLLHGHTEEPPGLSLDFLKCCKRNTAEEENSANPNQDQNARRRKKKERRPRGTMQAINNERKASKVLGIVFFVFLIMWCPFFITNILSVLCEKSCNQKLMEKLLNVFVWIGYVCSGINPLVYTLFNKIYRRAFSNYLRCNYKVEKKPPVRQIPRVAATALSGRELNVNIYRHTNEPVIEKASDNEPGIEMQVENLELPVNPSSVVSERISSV

[12] = biological target: Sodium-dependent noradrenaline transporter (Homo sapiens) (UniProt P23975); experiment: Binding affinity to norepinephrine transporter (unknown origin) at 10 uM relative to control
[13] = biological target: 5-hydroxytryptamine receptor 1B (Homo sapiens) (UniProt P28222); experiment: Binding affinity to recombinant human full length 5-HT1B receptor at 10 uM after 90 mins by scintillation counting analysis relative to control
[14] = biological target: Adrenergic receptor alpha-1 (Rattus norvegicus) (UniProt P15823+P23944+P43140); experiment: Binding affinity to rat alpha1 receptor at 10 uM after 60 mins by scintillation counting analysis relative to control; assay type: protein assay
[15] = biological target: Histamine H2 receptor (Homo sapiens) (UniProt P25021); experiment: Binding affinity to recombinant human histamine H2 receptor at 10 uM after 120 mins by scintillation counting analysis relative to control
[16] = biological target: Interstitial collagenase (Homo sapiens) (UniProt P03956); experiment: Binding affinity to human MMP1 at 10 uM after 20 mins by fluorescence assay relative to control
Interstitial collagenase (Homo sapiens), sequence (P03956 whole entry): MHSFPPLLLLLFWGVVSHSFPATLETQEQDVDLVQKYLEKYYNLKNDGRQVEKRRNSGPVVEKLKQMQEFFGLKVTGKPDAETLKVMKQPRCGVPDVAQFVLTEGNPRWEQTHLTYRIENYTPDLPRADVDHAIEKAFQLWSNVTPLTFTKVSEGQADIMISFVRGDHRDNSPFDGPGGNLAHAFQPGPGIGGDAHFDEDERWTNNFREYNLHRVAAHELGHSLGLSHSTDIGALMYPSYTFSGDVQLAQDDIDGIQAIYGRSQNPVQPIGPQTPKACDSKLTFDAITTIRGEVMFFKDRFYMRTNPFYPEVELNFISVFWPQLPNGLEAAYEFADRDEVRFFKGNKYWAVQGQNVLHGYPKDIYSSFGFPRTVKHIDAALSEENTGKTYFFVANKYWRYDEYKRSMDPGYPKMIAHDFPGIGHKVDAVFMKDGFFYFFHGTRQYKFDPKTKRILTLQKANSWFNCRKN

[17] = biological target: Neprilysin (Homo sapiens) (UniProt P08473); experiment: Binding affinity to neutral endopeptidase (unknown origin) at 10 uM by relative to control
Neprilysin (Homo sapiens), sequence (P08473 whole entry): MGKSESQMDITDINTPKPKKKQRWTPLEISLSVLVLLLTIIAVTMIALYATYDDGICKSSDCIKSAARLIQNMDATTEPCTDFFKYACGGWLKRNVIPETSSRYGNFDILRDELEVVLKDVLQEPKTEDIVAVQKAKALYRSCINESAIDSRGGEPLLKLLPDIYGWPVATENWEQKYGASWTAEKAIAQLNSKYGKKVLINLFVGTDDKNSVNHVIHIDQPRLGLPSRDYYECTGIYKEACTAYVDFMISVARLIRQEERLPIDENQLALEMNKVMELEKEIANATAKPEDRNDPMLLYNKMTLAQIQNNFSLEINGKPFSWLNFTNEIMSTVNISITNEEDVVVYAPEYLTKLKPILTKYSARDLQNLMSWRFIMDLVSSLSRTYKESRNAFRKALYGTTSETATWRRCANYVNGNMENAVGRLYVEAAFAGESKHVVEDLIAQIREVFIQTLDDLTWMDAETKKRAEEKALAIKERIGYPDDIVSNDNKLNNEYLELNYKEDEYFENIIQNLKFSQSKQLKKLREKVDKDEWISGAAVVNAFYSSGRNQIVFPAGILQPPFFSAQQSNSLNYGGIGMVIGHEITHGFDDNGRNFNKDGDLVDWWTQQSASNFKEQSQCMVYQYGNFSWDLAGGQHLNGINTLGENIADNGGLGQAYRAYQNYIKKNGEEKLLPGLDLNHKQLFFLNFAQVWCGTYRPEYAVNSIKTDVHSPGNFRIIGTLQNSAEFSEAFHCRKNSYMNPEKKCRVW

L-type calcium channel = L-type calcium channel (Homo sapiens, UniProt O60840+Q01668+Q13698+Q13936); experiment: Binding affinity to L-type calcium channel (unknown origin) at 10 uM relative to control; assay type: protein assay; conditions: read-out: Activity

D(3) dopamine receptor (Homo sapiens), sequence (P35462 whole entry): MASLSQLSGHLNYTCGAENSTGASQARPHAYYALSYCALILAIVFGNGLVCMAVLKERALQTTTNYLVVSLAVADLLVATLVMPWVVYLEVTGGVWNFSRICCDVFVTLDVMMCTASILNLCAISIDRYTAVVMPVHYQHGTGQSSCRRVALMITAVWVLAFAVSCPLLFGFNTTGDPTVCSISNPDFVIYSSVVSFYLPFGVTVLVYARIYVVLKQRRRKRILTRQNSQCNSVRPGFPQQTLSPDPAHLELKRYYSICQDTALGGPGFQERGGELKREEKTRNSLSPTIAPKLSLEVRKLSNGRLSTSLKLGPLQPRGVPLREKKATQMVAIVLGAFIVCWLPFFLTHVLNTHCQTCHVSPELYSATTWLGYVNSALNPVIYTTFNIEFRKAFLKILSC

`CCOc1c(Cl)cc(C(=O)Nc2ccc(C(=O)O)c(C)c2)cc1OC(C)C` was tested, and the Activity [1] was less than 25%, the Activity [2] was less than 25% and the Activity [3] was less than 25%. It also gave an Activity [4] of less than 25%, an Activity (Homo sapiens [5]) of less than 25% and an Activity [6] of less than 25%. For the same compound, the Activity [7] was less than 25%, the Activity (Homo sapiens [8]) was less than 25% and the Activity [9] was less than 25%. For the same compound, the Activity [10] was less than 25%, the Activity (Caspase-8 (Homo sapiens)) was less than 25% and the Activity [11] was less than 25%. It also gave an Activity [12] of less than 25%, an Activity [13] of less than 25% and an Activity [14] of less than 25%. The Activity [15] was less than 25%, the Activity [16] was less than 25% and the Activity [17] was less than 25%. It also gave an activity at 10 µM (L-type calcium channel) of no more than 25%.
